Read-outs that look alike come from different tables or passages of the source. Where a SMILES comes first, the peptide text is derived from it. [ ]: non-standard residue; d: D form. The star is where a group is joined. Dolaproine = CO[C@@H]([C@@H]1CCCN1)[C@@H](C)C(=O)O; Dil = CC[C@H](C)[C@H](NC)[C@@H](CC(=O)O)OC; X1 = C[C@@H](N*)[C@@H](O)c1ccccc1; NMeV = CN[C@H](C(=O)O)C(C)C

Experiment [1] deals with human pancreatic adenocarcinoma cell line (PSN-1). Kind of experiment: Cell-killing effect on PSN-1. The conditions noted are these: read-out: IC50 values for PSN-1. It counts as cell-based. On the procedure: (§1) The ADCs prepared above were evaluated in vitro for their cell-killing effects on human pancreatic adenocarcinoma cells by the following method.
(§2) RPMI-1640 supplemented with 10% fetal bovine serum and penicillin-streptomycin-[…] (×100) suspension was used as the culture medium. Human pancreatic adenocarcinoma BxPC-3, PSN-1, and HPAF-II were adjusted to 5000 cells/mL, 2000 cells/mL, and 5000 cells/mL, respectively, and seeded on 96-well plates at 100 μL/well and allowed to stand overnight in a CO2 incubator (37° C.).
(§3) The ADCs, Dxd single agent, and MMAE single agent were each adjusted with a culture solution so that the final concentration (in terms of MMAE and Dxd) was 0.1, 0.3, 1, 3, 10, 30, 100 nM, or the like, and were added at 100 μL/well to a 96-well plate inoculated with each human pancreatic adenocarcinoma, and then allowed to stand in a CO2 incubator (37° C.) for 6 days. Then, the culture medium containing the drug was removed with an aspirator, and the number of viable cells was measured by Cell Counting Kit-8 (manufactured by Dojindo Laboratories) according to the attached protocol. The reaction time of the reagent was three hours, and the absorbance was measured by SpectraMax Paradigm (manufactured by Molecular Devices). FIGS. 1A to 1E show the results of the cell-killing effects.

Experiment [2] deals with human pancreatic adenocarcinoma cell line (BxPC-3). Kind of experiment: Cell-killing effect on BxPC-3. It counts as cell-based. The note with it: read-out: IC50 values for BxPC-3. On the procedure: as §1, §2, §3

What is called IC50 is the concentration that gives 50% inhibition. Take `CC[C@@]1(O)C(=O)OCc2c1cc1n(c2=O)Cc2c-1nc1cc(F)c(C)c3c1c2[C@@H](NC(=O)CO)CC3` [Dxd]: the IC50 was determined as 7.92 ± 0.84 nM in experiment [1] (Homo sapiens, PSN1, 144 h) and 2.58 ± 0.26 nM in experiment [2] (Homo sapiens, BXPC-3, 144 h).
For `CC[C@H](C)[C@@H]([C@@H](CC(=O)N1CCC[C@H]1[C@H](OC)[C@@H](C)C(=O)N[C@H](C)[C@@H](O)c1ccccc1)OC)N(C)C(=O)[C@@H](NC(=O)[C@@H](NC)C(C)C)C(C)C` [MMAE, monomethyl auristatin E] (H-[NMeV]V[Dil][Dolaproine]-X1), the half-inhibitory concentration (IC50) in experiment [1] (FIG. 1B, concentration in terms of MMAE and Dxd, 6 days, Cell Counting Kit-8) turned out to be 0.73 ± 0.04 nM; in experiment [2] (FIG. 1A, concentration in terms of MMAE and Dxd, 6 days, Cell Counting Kit-8), 0.62 ± 0.04 nM.
